The results in this text go back to ChEMBL document CHEMBL5209583, “pH biosensor based assay for SLC9B2 using HEK-293 SLC9B2 OE cells” (2022).

In the test the target is T1, Sodium/hydrogen exchanger 9B2 (Homo sapiens, UniProt Q86UD5).
T1 sequence (Q86UD5 whole entry): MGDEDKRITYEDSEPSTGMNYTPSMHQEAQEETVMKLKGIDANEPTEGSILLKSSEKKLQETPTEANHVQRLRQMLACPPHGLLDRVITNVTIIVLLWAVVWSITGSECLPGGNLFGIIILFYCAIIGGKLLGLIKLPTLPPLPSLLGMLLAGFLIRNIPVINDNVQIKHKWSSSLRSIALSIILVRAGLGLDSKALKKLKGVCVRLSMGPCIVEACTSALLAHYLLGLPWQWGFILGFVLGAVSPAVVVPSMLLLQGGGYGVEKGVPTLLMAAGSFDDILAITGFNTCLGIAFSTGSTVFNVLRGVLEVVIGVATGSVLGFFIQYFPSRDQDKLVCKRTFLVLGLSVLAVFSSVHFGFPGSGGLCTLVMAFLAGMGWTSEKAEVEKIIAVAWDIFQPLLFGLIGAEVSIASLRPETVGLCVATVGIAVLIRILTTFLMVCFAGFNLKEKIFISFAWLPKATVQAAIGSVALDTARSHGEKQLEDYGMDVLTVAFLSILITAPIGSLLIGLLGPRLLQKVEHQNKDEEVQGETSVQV
Kind of test: Inhibition of the Sodium/Hydrogen Exchanger-Like Domain-Containing Protein 2 (NHA2, SLC9B2) as assessed by a sensor pH-sensitive genetically encoded fluorescent sensor (pHAxensor) in HEK-293 cells stably transfected with SLC9B2 (PubChem AID: 1794821). In kind it is functional, cell-based, HEK293.

Usually IC50 stands for the concentration that gives 50% inhibition. As to `O=C(CCc1ccc(O)cc1)c1c(O)cc(O)cc1O` [PHLORETIN], the IC50 came to 90 µM. This counts as double-digit micromolar.
